Experimental data taken from patent US20260027068A1, “METHODS OF ADM[…]-KETAMINE” (Perception Neuroscience, Inc., priority 2022, published 2026).

Tested on: subjects with TRD
Test: MADRS total score after a single 40-minute IV infusion, double-blind placebo-controlled study in TRD
Format: in vivo, human
Conditions: for Change from Baseline MADRS Total Score, Adjusted mean (SE) / Diff. Adjusted mean (SE) R(−)ketamine - Placebo: MMRM
Experimental: This was a double-blind, randomized, placebo-controlled, multicenter study comprised of 3 phases: screening (up to 2 weeks [day-15 to day-2]), in-clinic treatment (day-1 to day 2; including double-blind treatment [day 1]), and post-treatment follow-up (7 and 14 days after infusion on days 8 and 15, respectively). The study consisted of 3 arms: placebo, R(−)-ketamine solution (30 mg), and R(−)-ketamine solution (60 mg.) A total of 101 adult subjects with TRD were randomly allocated in cohorts of 33-35 subjects/arm to the 3 arms of the study in a blinded manner.
The subjects were randomized within 14 days of screening (Visit 1). Subjects were admitted to the clinic the evening prior to study treatment administration (day-1, Visit 2) and underwent baseline testing to ensure continued study eligibility. Study treatments were infused IV over 40 minutes the next morning (day 1, Visit 2). Starting immediately prior to dosing, subjects were monitored closely for safety.
To determine the efficacy of two doses (30 mg and 60 mg) of intravenous (IV) R(−)-ketamine hydrochloride, the doses were administered as an IV infusion over 40 minutes. These doses are within the range shown to be well-tolerated in a Phase 1 study in healthy volunteers. […] The 10-item clinician-administered MADRS was designed to be used in subjects with MDD to measure the overall severity of depressive symptoms. The MADRS scale is validated, reliable, and acceptable to regulatory health authorities as a primary scale to determine efficacy in major depression.
Population: Subjects with TRD in the full analysis set (FAS) and analyzed according to their randomized treatment. The analysis population includes all randomized subjects who receive any amount of study treatment and have at least one postbaseline assessment available. Variable: Change in total MADRS score from baseline at 24 hours after the start of infusion.
MADRS total score was assessed at 2 and 4 hours, 7 and 14 days after the start of the infusion (days 8 and 15, respectively). Note, for the 2-hour and 4-hour recall periods, the sleep and appetite items were not assessed.
Proportion of subjects with ≥50% improvement in MADRS total score at 24 hours, 7 days, and 14 days after start of infusion (days 8 and 15, respectively).
Proportion of subjects with a MADRS total score≤10 at 24 hours, 7 days, and 14 days after start of infusion (days 8 and 15, respectively).
The 10-item MADRS was administered by the study staff to measure the overall severity of depressive symptoms. The MADRS total score was assessed at screening and baseline (Day 1 pre-dose). The primary efficacy endpoint of improvement in the MADRS total score was evaluated prior to discharge on Day 2 of Visit 2, 24 hours after the start of the infusion of study treatment. The MADRS total score was also assessed at 2 hours, 4 hours, 7 days (on Day 8), and 14 days (on Day 15) after the start of the infusion to evaluate the secondary efficacy endpoints of response (defined as ≥50% improvement in the MADRS total score from pre-dose) and remission (defined as MADRS total score≤10) in the improvement of depressive symptoms in the subjects. While the MADRS is typically used with a 7-day recall period, versions of the MADRS including 2-hour and […] recall periods were used in this study. (For the 2 hour and 4 hour periods, the sleep and appetite items were […]; pre-dose scores for these items obtained on the same day were carried forward).
The change from baseline in MADRS scores was summarized separately by treatment arm for each visit. Associated baseline scores were taken as the last corresponding measurement prior to the first dose of IMP in the treatment period (i.e., Visit 2, pre-dose). The primary endpoint of change from baseline MADRS total score at 24 hours post start of infusion was evaluated using a mixed effects model for repeated measure (MMRM) analysis with observed cases only. […]

[1] = 30 mg, Day 1, 24 hours, primary endpoint
[2] = 60 mg, Day 1, 24 hours, primary endpoint

CN[C@@]1(c2ccccc2Cl)CCCCC1=O.Cl [R(−)-ketamine, (2R)-2-(2-chlorophenyl)-2-(methylamino)cyclohexan-1-one]
MADRS total score, Mean (30 mg, 2 hours): 20.7
MADRS total score, Median (30 mg, 2 hours): 21.0
MADRS total score, Mean (30 mg, 4 hours): 19.2
MADRS total score, Median (30 mg, 4 hours): 19.0
MADRS total score, Mean (30 mg, 24 hours (Day 2)): 16.7
MADRS total score, Median (30 mg, 24 hours (Day 2)): 13.0
Not-responder, % (30 mg, Day 1, 2 hours): 72.7%
Responder (>=50% improvement of MADRS total score), % (30 mg, Day 1, 2 hours): (27.3) %
adjusted odds ratio R-ket/placebo (95% CI) (30 mg, Day 1, 2 hours): 1.667 (0.503, 5.520)
Change from Baseline MADRS Total Score, Adjusted mean (SE) (30 mg, Day 1, 2 hours): −9.7 (1.35)
Diff. Adjusted mean (SE) R(−)ketamine - Placebo (30 mg, Day 1, 2 hours): −0.6 (1.85) [−4.24, 3.08]
Not-responder, % (30 mg, Day 1, 4 hours): 72.7%
Responder (>=50% improvement of MADRS total score), % (30 mg, Day 1, 4 hours): (27.3) %
adjusted odds ratio R-ket/placebo (95% CI) (30 mg, Day 1, 4 hours): 0.963 (0.317, 2.928)
Change from Baseline MADRS Total Score, Adjusted mean (SE) (30 mg, Day 1, 4 hours): −11.2 (1.36)
Diff. Adjusted mean (SE) R(−)ketamine - Placebo (30 mg, Day 1, 4 hours): −0.1 (1.86) [−3.81, 3.56]
Not-responder, % (30 mg, Day 1, 24 hours): 42.4%
Responder (>=50% improvement of MADRS total score), % (30 mg, Day 1, 24 hours): (57.6) %
adjusted odds ratio R-ket/placebo (95% CI) (30 mg, Day 1, 24 hours): 1.418 (0.524, 3.837)
Change from Baseline MADRS Total Score, Adjusted mean (SE) [1]: −13.7 (1.75)
Diff. Adjusted mean (SE) R(−)ketamine - Placebo [1]: −0.0 (2.42) [−4.84, 4.77]
MADRS total score, Mean (30 mg, Day 8): 19.9
MADRS total score, Median (30 mg, Day 8): 22.0
Not-responder, % (30 mg, Day 8): 70.0%
Responder (>=50% improvement of MADRS total score), % (30 mg, Day 8): (30.0) %
adjusted odds ratio R-ket/placebo (95% CI) (30 mg, Day 8): 1.040 (0.336, 3.212)
Change from Baseline MADRS Total Score, Adjusted mean (SE) (30 mg, Day 8): −10.4 (1.81)
Diff. Adjusted mean (SE) R(−)ketamine - Placebo (30 mg, Day 8): 1.0 (2.51) [−4.01, 5.94]
MADRS total score, Mean (30 mg, Day 15): 22.8
MADRS total score, Median (30 mg, Day 15): 24.0
Not-responder, % (30 mg, Day 15): 83.9%
Responder (>=50% improvement of MADRS total score), % (30 mg, Day 15): (16.1) %
adjusted odds ratio R-ket/placebo (95% CI) (30 mg, Day 15): 0.621 (0.169, 2.282)
Change from Baseline MADRS Total Score, Adjusted mean (SE) (30 mg, Day 15): −7.5 (1.82)
Diff. Adjusted mean (SE) R(−)ketamine - Placebo (30 mg, Day 15): 2.4 (2.53) [−2.62, 7.40]
MADRS total score change from baseline, Mean (30 mg, to 2 hours): −8.8
MADRS total score change from baseline, Median (30 mg, to 2 hours): −7.0
MADRS total score change from baseline, Mean (30 mg, to 4 hours): −10.4
MADRS total score change from baseline, Median (30 mg, to 4 hours): −10.0
MADRS total score change from baseline, Mean (30 mg, to 24 hours): −12.8
MADRS total score change from baseline, Median (30 mg, to 24 hours): −15.0
MADRS total score change from baseline, Mean (30 mg, to Day 8): −9.8
MADRS total score change from baseline, Median (30 mg, to Day 8): −7.0
MADRS total score change from baseline, Mean (30 mg, to Day 15): −6.6
MADRS total score change from baseline, Median (30 mg, to Day 15): −5.0
MADRS total score, Mean (60 mg, 2 hours): 18.4
MADRS total score, Median (60 mg, 2 hours): 20.0
MADRS total score, Mean (60 mg, 4 hours): 17.6
MADRS total score, Median (60 mg, 4 hours): 18.0
MADRS total score, Mean (60 mg, 24 hours (Day 2)): 15.1
MADRS total score, Median (60 mg, 24 hours (Day 2)): 16.0
Not-responder, % (60 mg, Day 1, 2 hours): 68.6%
Responder (>=50% improvement of MADRS total score), % (60 mg, Day 1, 2 hours): (31.4) %
adjusted odds ratio R-ket/placebo (95% CI) (60 mg, Day 1, 2 hours): 2.031 (0.634, 6.504)
Change from Baseline MADRS Total Score, Adjusted mean (SE) (60 mg, Day 1, 2 hours): −12.0 (1.31)
Diff. Adjusted mean (SE) R(−)ketamine - Placebo (60 mg, Day 1, 2 hours): −2.9 (1.82) [−6.55, 0.67]
Not-responder, % (60 mg, Day 1, 4 hours): 62.9%
Responder (>=50% improvement of MADRS total score), % (60 mg, Day 1, 4 hours): (37.1) %
adjusted odds ratio R-ket/placebo (95% CI) (60 mg, Day 1, 4 hours): 1.536 (0.534, 4.416)
Change from Baseline MADRS Total Score, Adjusted mean (SE) (60 mg, Day 1, 4 hours): −12.8 (1.32)
Diff. Adjusted mean (SE) R(−)ketamine - Placebo (60 mg, Day 1, 4 hours): −1.7 (1.83) [−5.34, 1.92]
Not-responder, % (60 mg, Day 1, 24 hours): 54.3%
Responder (>=50% improvement of MADRS total score), % (60 mg, Day 1, 24 hours): (45.7) %
adjusted odds ratio R-ket/placebo (95% CI) (60 mg, Day 1, 24 hours): 0.847 (0.318, 2.254)
Change from Baseline MADRS Total Score, Adjusted mean (SE) [2]: −15.3 (1.69)
Diff. Adjusted mean (SE) R(−)ketamine - Placebo [2]: −1.6 (2.38) [−6.35, 3.11]
MADRS total score, Mean (60 mg, Day 8): 17.7
MADRS total score, Median (60 mg, Day 8): 21.0
Not-responder, % (60 mg, Day 8): 65.7%
Responder (>=50% improvement of MADRS total score), % (60 mg, Day 8): (34.3) %
adjusted odds ratio R-ket/placebo (95% CI) (60 mg, Day 8): 1.202 (0.412, 3.511)
Change from Baseline MADRS Total Score, Adjusted mean (SE) (60 mg, Day 8): −12.7 (1.72)
Diff. Adjusted mean (SE) R(−)ketamine - Placebo (60 mg, Day 8): −1.4 (2.44) [−6.26, 3.45]
MADRS total score, Mean (60 mg, Day 15): 19.3
MADRS total score, Median (60 mg, Day 15): 22.0
Not-responder, % (60 mg, Day 15): 65.7%
Responder (>=50% improvement of MADRS total score), % (60 mg, Day 15): (34.3) %
adjusted odds ratio R-ket/placebo (95% CI) (60 mg, Day 15): 1.715 (0.559, 5.263)
Change from Baseline MADRS Total Score, Adjusted mean (SE) (60 mg, Day 15): −11.1 (1.73)
Diff. Adjusted mean (SE) R(−)ketamine - Placebo (60 mg, Day 15): −1.2 (2.46) [−6.09, 3.69]
MADRS difference from placebo (60 mg, day 15): ~2 point
Statistical significance of the MADRS difference from placebo (60 mg, day 15): not statistically significant
MADRS total score change from baseline, Mean (60 mg, to 2 hours): −11.3
MADRS total score change from baseline, Median (60 mg, to 2 hours): −10.0
MADRS total score change from baseline, Mean (60 mg, to 4 hours): −12.1
MADRS total score change from baseline, Median (60 mg, to 4 hours): −12.0
MADRS total score change from baseline, Mean (60 mg, to 24 hours): −14.5
MADRS total score change from baseline, Median (60 mg, to 24 hours): −14.0
MADRS total score change from baseline, Mean (60 mg, to Day 8): −12.0
MADRS total score change from baseline, Median (60 mg, to Day 8): −10.0
MADRS total score change from baseline, Mean (60 mg, to Day 15): −10.4
MADRS total score change from baseline, Median (60 mg, to Day 15): −6.0
